This assay concerns the target Mitogen-activated protein kinase kinase kinase 11 (Homo sapiens, UniProt Q16584). Briefly: Radiometric Filter Plate MLK3 Assay. Here is the method:
200 ng (130 nM) MLK3 (Dundee, DU8313) was incubated with 1 μM inactive MKK7b (Dundee, DU703) in the presence of 2 μM cold ATP (Km) and 0.5 μCi/assay 33P ATP and appropriate concentrations of compounds. After a twenty minute incubation, the reactions were washed through filter plates and read on a scintillation counter.

Results on one compound are retold here after BindingDB's records for patent US10485800 (The University of Rochester, 2019).

One may read the IC50 as the concentration that gives 50% inhibition. Read a high IC50 as a need for much substance.

SMILES strings stand for the structures.

Sequence of Mitogen-activated protein kinase kinase kinase 11 (Q16584 whole entry): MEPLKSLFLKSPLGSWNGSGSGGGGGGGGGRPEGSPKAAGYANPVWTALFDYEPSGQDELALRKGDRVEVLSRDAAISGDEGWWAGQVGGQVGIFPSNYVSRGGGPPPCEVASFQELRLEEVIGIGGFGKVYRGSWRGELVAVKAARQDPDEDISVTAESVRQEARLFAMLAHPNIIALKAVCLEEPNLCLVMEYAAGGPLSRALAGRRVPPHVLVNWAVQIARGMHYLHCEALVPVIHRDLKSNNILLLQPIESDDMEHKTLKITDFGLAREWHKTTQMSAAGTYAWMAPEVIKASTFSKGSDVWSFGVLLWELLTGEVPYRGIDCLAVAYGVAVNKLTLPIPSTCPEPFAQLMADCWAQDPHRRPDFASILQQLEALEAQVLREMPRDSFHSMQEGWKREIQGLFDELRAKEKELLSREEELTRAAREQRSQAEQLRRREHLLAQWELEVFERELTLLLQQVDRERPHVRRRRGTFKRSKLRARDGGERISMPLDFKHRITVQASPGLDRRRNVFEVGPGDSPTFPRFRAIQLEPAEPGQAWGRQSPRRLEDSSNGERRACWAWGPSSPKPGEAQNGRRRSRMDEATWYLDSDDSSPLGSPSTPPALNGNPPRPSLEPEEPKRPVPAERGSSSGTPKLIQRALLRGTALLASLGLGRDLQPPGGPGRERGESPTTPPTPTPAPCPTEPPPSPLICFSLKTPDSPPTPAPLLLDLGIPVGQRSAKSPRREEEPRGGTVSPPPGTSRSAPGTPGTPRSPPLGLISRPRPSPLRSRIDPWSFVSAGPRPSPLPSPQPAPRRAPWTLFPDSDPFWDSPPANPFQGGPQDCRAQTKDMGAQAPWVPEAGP

As to `CC(=O)N1CCN(C(=O)c2ccc(-c3cnc4[nH]cc(-c5ccc(C(N)=O)cc5)c4c3)cc2)CC1` [US10485800, Example 150], the IC50 entry was “in the range around 550 nM”.
